The target of one assay is T1, RARβ2 (Homo sapiens, UniProt P10826).
T1 sequence (P10826 1-448 isoform P10826-2): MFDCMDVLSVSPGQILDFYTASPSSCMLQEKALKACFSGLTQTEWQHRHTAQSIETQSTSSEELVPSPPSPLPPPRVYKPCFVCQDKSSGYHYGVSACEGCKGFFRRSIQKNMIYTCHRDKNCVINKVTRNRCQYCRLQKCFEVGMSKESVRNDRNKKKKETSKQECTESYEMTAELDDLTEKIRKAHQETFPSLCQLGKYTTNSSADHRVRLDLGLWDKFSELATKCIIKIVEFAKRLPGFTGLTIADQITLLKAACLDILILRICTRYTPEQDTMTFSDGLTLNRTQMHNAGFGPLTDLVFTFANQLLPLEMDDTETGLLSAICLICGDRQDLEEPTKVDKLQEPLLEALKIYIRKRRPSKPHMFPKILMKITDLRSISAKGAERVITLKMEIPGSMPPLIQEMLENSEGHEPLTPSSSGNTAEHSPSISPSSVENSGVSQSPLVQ
To be noted: as described in Lund et al. 2005; cited from earlier work.

The subject of another assay is HFD-fed C57/BL6 mice. Put plainly: Acute administration (8 days) to HFD-fed mice: body weight, intake, random glucose, GTT, ITT. The format is in vivo, mouse. Here is the method:
FIG. 31. Acute administration of Retinoic Acid Receptor β (RARβ) agonist AC261066 reverses high fat induced glucose intolerance and insulin resistance. A-C) Body weights, water and food intake of wild type C57/B16 male mice after 3 months of being fed either: a standard chow (13% Kcal/fat) diet (Wt Con, n=4), a high fat (45% Kcal/fat) diet (HFD, n=4) or 3 months of a HFD mice plus 8 days of administration of the RARβ agonist AC261066 (n=4) in their drinking water at a dose of 5.4 mg/Kg BW/day. On day 8 mice were tested for glucose intolerance and insulin resistance. D and E) Random glucose and glucose tolerance test (GTT) of mice described in A. F) Insulin tolerance test of mice described in A.
Metabolic Measurements-Glucose tolerance was performed using an intraperitoneal glucose tolerance test (GTT) as previously described (Trasino et al., Vitamin A Deficiency Causes Hyperglycemia and Loss of Pancreatic β-Cell Mass, J Biol Chem. 2014 Dec. 1. pii: jbc.M114.616763). […] Tail vein blood glucose was measured at 20, 40, 60 and 120 minutes after injection using a FreeStyle Lite Blood Glucose Monitoring System (Abbott Diabetes Care, Inc. Alameda, Calif.). To determine insulin secretion responses to glucose, serum fractions were isolated between 0-60 minutes post glucose injections and insulin concentrations were measured using an Ultrasensitive Insulin ELISA Kit (Alpco, Inc. Salem, N.H.). […]

In a further assay the test system is Ob/Ob and Db/Db mice. Put plainly: Metabolic studies (body weight, GTT, insulin secretion, ITT) in Ob/Ob and Db/Db mice, 8 weeks. The format is in vivo, mouse.
For another assay, the system named is HF-fed C57/BL6 mice. Kind of assay: Metabolic studies (body weight, GTT) in HF-fed wild type mice, 4 months. The class given is in vivo, mouse. As to conditions: obese HF-fed mice, 3.0 mg/100 ml drinking water. The method, then:
Mice, diet, and drug treatment. Dietary Obesity Studies: Wild type (wt) male C57/BL6 male mice were maintained on either a standard laboratory chow-fed diet (Con) with 13% kcal fat, (diet #5053, Lab Diet, Inc, St. Louis, Mo.) or a high fat, western style diet (HFD) with 45% kcals from fat, (diet #58126, Lab Diet, Inc., St. Louis, Mo.) for 4 months. […]
Metabolic Measurements-Glucose tolerance was performed using an intraperitoneal glucose tolerance test (GTT) as previously described (Trasino et al., Vitamin A Deficiency Causes Hyperglycemia and Loss of Pancreatic β-Cell Mass, J Biol Chem. 2014 Dec. 1. pii: jbc.M114.616763). […] Tail vein blood glucose was measured at 20, 40, 60 and 120 minutes after injection using a FreeStyle Lite Blood Glucose Monitoring System (Abbott Diabetes Care, Inc. Alameda, Calif.). To determine insulin secretion responses to glucose, serum fractions were isolated between 0-60 minutes post glucose injections and insulin concentrations were measured using an Ultrasensitive Insulin ELISA Kit (Alpco, Inc. Salem, N.H.). Random blood glucose measurements were taken from tail veins of 4 mice per group at 2-3 random time points daily Means are expressed as±standard error of the mean (S.E.M) and P-values were calculated using one-way analysis of variance followed by Bonferroni post-hoc analysis.

Here are results for 1 compound from patent US20220304945A1, “METHODS OF TREATING METABOLIC SYNDROME RELATED CONDITIONS USING RETINOIC ACID RECEPTOR AGONISTS” (Cornell University, priority 2014, published 2022).

Structures are written as SMILES. Entries after “also recorded” stand apart in the source; their conditions may differ.

Take `CCCCOCCOc1nc(-c2ccc(C(=O)O)c(F)c2)sc1C` [AC261066]: the “isoform selectivity for the human RARβ2 receptors” value on RARβ2 was “highly isoform-selective agonists”. In the assay with HFD-fed C57/BL6 mice (after 24 hours of administration), the random glucose levels result is “significant reductions”. The “hyperglycemia (glucose intolerance) and insulin resistance” value in the assay on HFD-fed C57/BL6 mice (after 8 days of administration) is listed as “reverses; also recorded: significant reductions”. Besides, the pancreatic insulin secretion result with Ob/Ob and Db/Db mice (Ob/Ob mice) is “decreased”. In addition, the body weights entry is “significant reductions” in the assay with Ob/Ob and Db/Db mice (genetically obese and diabetic Ob/Ob and Db/Db mice); “significant reductions” in the assay on HF-fed C57/BL6 mice.
